Source: article PMC1851987, “Identification of the Endogenous Key Substrates of the Human Organic Cation Transporter OCT2 and Their Implication in Function of Dopaminergic Neurons” (PLoS ONE, 2007)
Marks after values point to notes of the source that are not given here.

How the values were obtained:
SH-SY5Y cells [1] = experiment: MTT reduction cell viability assay, SH-SY5Y cells; assay type: cell-based, human
Protocol: (§1) Cell viability was assessed in HEK-293 cells, human dopaminergic neuroblastoma cells (SH-SY5Y) and human glioblastoma cells (HTZ-146) by the MTT test as described.[22] […] For indication of metabolic activity, cells were treated with MTT reagent (15 µl of 1 mg/ml stock solution per well) for 1 h, and after drying of culture plates for 1 h at 37°C, the resulting formazan dye was extracted with isopropanol/HCl (100 µl 0.04 mol/l per well) and absorbance was determined spectrophotometrically at 568 nm. Results were in agreement with the data obtained by the tryptan blue exclusion method (data not shown).

HTZ-146 cells [2] = experiment: MTT reduction cell viability assay, HTZ-146 cells; assay type: cell-based, human
Protocol: as §1

[3] = molecular target: T1, norepinephrine transporter (NET) (Homo sapiens, UniProt P23975); experiment: Specific uptake into norepinephrine transporter (NET) transfected HEK-293 cells; assay type: cell-based; settings: 10 µmol/l, 5 min incubation
T1 construct: expressed in transfected cells; host or cells: HEK-293, stably transfected; cDNA from C; Pifl (University of Vienna)
Excerpt: Pifl (University of Vienna).
1. Burnette WB, Bailey MD, Kukoyi S, Blakely RD, Trowbridge CG, et al. (1996) Human norepinephrine transporter kinetics using rotating disk electrode voltammetry. Anal Chem 68: 2932–2938. (0.90 MB TIF) Click here for additional data file.

SH-SY5Y cells [4] = experiment: Uptake of cyclo(his-pro) and salsolinol into SH-SY5Y cells with transport inhibitors; assay type: cell-based, human; settings: substrates 10 µmol/l, 5 min; inhibitors 10 µmol/l (decynium-22 1 µmol/l)
Protocol: (§2) (D) Relative quantitative real-time expression of OCT2 mRNA in distinct areas of normal human brain and neuroepithelial tumors (TaqMan Assay) normalized to GAPDH.
(§3) For uptake experiments, cells were grown on polystyrene dishes of 60 mm diameter to at least 80% confluence. Prior to addition of test compounds, culture medium was replaced by 3 ml HEPES-modified Krebs buffer (140.0 mmol/l NaCl, 5.0 mmol/l KCl, 2.0 mmol/l CaCl2, 1.0 mmol/l MgCl2, 10.0 mmol/l HEPES, and 5.0 mmol/l D-glucose, adjusted to pH 7.40), and cells were left to equilibrate for 60 min at 37°C. Uptake was terminated after indicated times by washing cells with ice-cold buffer. Cells were lysed with 1 ml of 4 mmol/l perchloric acid and lysates subjected to LC-MS-MS quantification. Cellular protein content was determined after solubilization of perchloric acid precipitates with 1 ml of […] NaOH using the bicinchoninic assay (BCA Protein Assay Kit, Pierce).
(§4) Chromatographic separations were performed on Hypercarb (5 µm, 50×2.1 mm; Thermo Electron), Aquasil C18 (3 µm, 100×4.6 mm; Thermo Electron), or Hilic columns (5 µm, 100×3.0 mm; Waters Atlantis) by isocratic or gradient elution using 0.1% aqueous formic acid (A) and acetonitrile or methanol (B) as solvent system. For quantification, SRM transitions of a precursor ion [M+H]^+ into a specific fragment ion (peak area ratios relative to IS) were recorded in positive ESI mode at 1.0–1.5 mTorr collision pressure and 10–40 eV collision energy. External calibration curves were obtained from serial dilutions of the analyte in 4 mmol/l HClO4 by linear or logistic regression. Detection limit was at least 0.001 nmol/mg protein.

HTZ-146 cells [5] = experiment: Uptake of cyclo(his-pro) and salsolinol into HTZ-146 cells with transport inhibitors; assay type: cell-based, human; settings: substrates 10 µmol/l, 5 min; inhibitors 10 µmol/l (decynium-22 1 µmol/l)
Protocol: as §2, §3, §4

[6] = substrate: O=C1NC(Cc2c[nH]cn2)C(=O)N2CCCC12; experiment: cells, lysate or membranes; settings: mean (s.e.m.), pH 7.4, 37.0 °C
[7] = 48 h, non-pretreated, read-out: EC50 (95% confidence interval), cell viability
[8] = other: specific uptake, 1 min of loading, n = 3

T1 sequence (P23975 whole entry): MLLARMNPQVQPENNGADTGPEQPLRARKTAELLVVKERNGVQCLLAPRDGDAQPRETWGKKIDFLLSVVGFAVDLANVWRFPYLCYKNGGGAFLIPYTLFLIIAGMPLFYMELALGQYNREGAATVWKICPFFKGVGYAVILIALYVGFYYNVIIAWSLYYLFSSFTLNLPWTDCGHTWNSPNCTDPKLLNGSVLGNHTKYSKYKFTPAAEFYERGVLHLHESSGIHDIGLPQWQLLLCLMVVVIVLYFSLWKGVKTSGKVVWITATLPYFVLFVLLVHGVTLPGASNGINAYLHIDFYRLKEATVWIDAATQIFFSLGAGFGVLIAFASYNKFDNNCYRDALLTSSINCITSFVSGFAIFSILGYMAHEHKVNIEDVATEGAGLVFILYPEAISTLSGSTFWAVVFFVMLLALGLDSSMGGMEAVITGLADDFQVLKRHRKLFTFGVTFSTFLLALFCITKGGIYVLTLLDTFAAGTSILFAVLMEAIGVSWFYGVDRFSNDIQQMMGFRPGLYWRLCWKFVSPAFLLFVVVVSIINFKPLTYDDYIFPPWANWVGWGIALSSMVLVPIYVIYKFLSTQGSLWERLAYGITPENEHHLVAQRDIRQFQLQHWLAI

Molecule	effect of coincubated inhibitor on uptake of cyclo(his-pro) and salsolinol (SH-SY5Y cells [4])	effect of coincubated inhibitor on uptake of cyclo(his-pro) and salsolinol (HTZ-146 cells [5])	Km ([6]; other: 1 min of loading)	Vmax ([6]; other: 1 min of loading) [µmol/min/mg]	also measured
C[C@]12N[C@H](Cc3ccccc31)c1ccccc12 [(+)-MK-801, reference compound]	–	–	–	–	effect on cell death caused by glutamate as well as salsolinol (SH-SY5Y cells [1]; (+)-MK-801 10 µmol/l present): attenuated; effect on cell death caused by glutamate as well as salsolinol (HTZ-146 cells [2]; (+)-MK-801 10 µmol/l present): attenuated
NCCc1ccc(O)cc1 [tyramine, reference compound]	–	–	–	–	substrate of NET (specific uptake) [3]: excellent NET substrate
CC(COc1ccccc1)N(CCCl)Cc1ccccc1 (stereo not drawn) [phenoxybenzamine]	almost abolished	almost abolished	–	–	–
CNCCCN1c2ccccc2CCc2ccccc21 [desipramine]	not different from control conditions	not different from control conditions	–	–	–
Fc1ccc(C(OCCN2CCN(CCCc3ccccc3)CC2)c2ccc(F)cc2)cc1 [GBR12909]	not different from control conditions	not different from control conditions	–	–	–
N[C@@H](CCC(=O)O)C(=O)O [glutamate, reference compound]	–	–	–	–	EC50 (SH-SY5Y cells [1]; [7]): 389 µM; EC50 (HTZ-146 cells [2]; [7]): 585 µM
CCN1/C(=C/c2ccc3ccccc3[n+]2CC)C=Cc2ccccc21.[I-] [decynium-22]	almost abolished	almost abolished	–	–	–
organic cation transporter OCT2 (wild-type 400R) (Homo sapiens; S270A) (protein) MPTTVDDVLEHGGEFHFFQKQMFFLLALLSATFAPIYVGIVFLGFTPDHRCRSPGVAELSLRCGWSPAEELNYTVPGPGPAGEASPRQCRRYEVDWNQSTFDCVDPLASLDTNRSRLPLGPCRDGWVYETPGSSIVTEFNLVCANSWMLDLFQSSVNVGFFIGSMSIGYIADRFGRKLCLLTTVLINAAAGVLMAISPTYTWMLIFRLIQGLVSKAGWLIGYILITEFVGRRYRRTVGIFYQVAYTVGLLVLAGVAYALPHWRWLQFTVALPNFFFLLYYWCIPESPRWLISQNKNAEAMRIIKHIAKKNGKSLPASLQRLRLEEETGKKLNPSFLDLVRTPQIRKHTMILMYNWFTSSVLYQGLIMHMGLAGDNIYLDFFYSALVEFPAAFMIILTIDRIGRRYPWAASNMVAGAACLASVFIPGDLQWLKIIISCLGRMGITMAYEIVCLVNAELYPTFIRNLGVHICSSMCDIGGIITPFLVYRLTNIWLELPLMVFGVLGLVAGGLVLLLPETKGKALPETIEEAENMQRPRKNKEKMIYLQVQKLDIPLN	–	–	–	–	Km [6, 8]: 74 (12) µmol/l; Vmax [6, 8]: 0.003 µmol/min/mg; Vmax/Km [6, 8]: 41 µl/mg protein/min
OCT2 variant K432Q (Homo sapiens; K432Q/S270A) (protein) MPTTVDDVLEHGGEFHFFQKQMFFLLALLSATFAPIYVGIVFLGFTPDHRCRSPGVAELSLRCGWSPAEELNYTVPGPGPAGEASPRQCRRYEVDWNQSTFDCVDPLASLDTNRSRLPLGPCRDGWVYETPGSSIVTEFNLVCANSWMLDLFQSSVNVGFFIGSMSIGYIADRFGRKLCLLTTVLINAAAGVLMAISPTYTWMLIFRLIQGLVSKAGWLIGYILITEFVGRRYRRTVGIFYQVAYTVGLLVLAGVAYALPHWRWLQFTVALPNFFFLLYYWCIPESPRWLISQNKNAEAMRIIKHIAKKNGKSLPASLQRLRLEEETGKKLNPSFLDLVRTPQIRKHTMILMYNWFTSSVLYQGLIMHMGLAGDNIYLDFFYSALVEFPAAFMIILTIDRIGRRYPWAASNMVAGAACLASVFIPGDLQWLQIIISCLGRMGITMAYEIVCLVNAELYPTFIRNLGVHICSSMCDIGGIITPFLVYRLTNIWLELPLMVFGVLGLVAGGLVLLLPETKGKALPETIEEAENMQRPRKNKEKMIYLQVQKLDIPLN	–	–	78 (12) µmol/l	0.0031	–
OCT2 variant A270S (Homo sapiens) (protein) MPTTVDDVLEHGGEFHFFQKQMFFLLALLSATFAPIYVGIVFLGFTPDHRCRSPGVAELSLRCGWSPAEELNYTVPGPGPAGEASPRQCRRYEVDWNQSTFDCVDPLASLDTNRSRLPLGPCRDGWVYETPGSSIVTEFNLVCANSWMLDLFQSSVNVGFFIGSMSIGYIADRFGRKLCLLTTVLINAAAGVLMAISPTYTWMLIFRLIQGLVSKAGWLIGYILITEFVGRRYRRTVGIFYQVAYTVGLLVLAGVAYALPHWRWLQFTVSLPNFFFLLYYWCIPESPRWLISQNKNAEAMRIIKHIAKKNGKSLPASLQRLRLEEETGKKLNPSFLDLVRTPQIRKHTMILMYNWFTSSVLYQGLIMHMGLAGDNIYLDFFYSALVEFPAAFMIILTIDRIGRRYPWAASNMVAGAACLASVFIPGDLQWLKIIISCLGRMGITMAYEIVCLVNAELYPTFIRNLGVHICSSMCDIGGIITPFLVYRLTNIWLELPLMVFGVLGLVAGGLVLLLPETKGKALPETIEEAENMQRPRKNKEKMIYLQVQKLDIPLN	–	–	75 (11) µmol/l	0.0032	–
OCT2 variant M165I (Homo sapiens; M165I/S270A) (protein) MPTTVDDVLEHGGEFHFFQKQMFFLLALLSATFAPIYVGIVFLGFTPDHRCRSPGVAELSLRCGWSPAEELNYTVPGPGPAGEASPRQCRRYEVDWNQSTFDCVDPLASLDTNRSRLPLGPCRDGWVYETPGSSIVTEFNLVCANSWMLDLFQSSVNVGFFIGSISIGYIADRFGRKLCLLTTVLINAAAGVLMAISPTYTWMLIFRLIQGLVSKAGWLIGYILITEFVGRRYRRTVGIFYQVAYTVGLLVLAGVAYALPHWRWLQFTVALPNFFFLLYYWCIPESPRWLISQNKNAEAMRIIKHIAKKNGKSLPASLQRLRLEEETGKKLNPSFLDLVRTPQIRKHTMILMYNWFTSSVLYQGLIMHMGLAGDNIYLDFFYSALVEFPAAFMIILTIDRIGRRYPWAASNMVAGAACLASVFIPGDLQWLKIIISCLGRMGITMAYEIVCLVNAELYPTFIRNLGVHICSSMCDIGGIITPFLVYRLTNIWLELPLMVFGVLGLVAGGLVLLLPETKGKALPETIEEAENMQRPRKNKEKMIYLQVQKLDIPLN	–	–	78 (15) µmol/l	0.0029	–
OCT2 variant R400C (Homo sapiens; R400C/S270A) (protein) MPTTVDDVLEHGGEFHFFQKQMFFLLALLSATFAPIYVGIVFLGFTPDHRCRSPGVAELSLRCGWSPAEELNYTVPGPGPAGEASPRQCRRYEVDWNQSTFDCVDPLASLDTNRSRLPLGPCRDGWVYETPGSSIVTEFNLVCANSWMLDLFQSSVNVGFFIGSMSIGYIADRFGRKLCLLTTVLINAAAGVLMAISPTYTWMLIFRLIQGLVSKAGWLIGYILITEFVGRRYRRTVGIFYQVAYTVGLLVLAGVAYALPHWRWLQFTVALPNFFFLLYYWCIPESPRWLISQNKNAEAMRIIKHIAKKNGKSLPASLQRLRLEEETGKKLNPSFLDLVRTPQIRKHTMILMYNWFTSSVLYQGLIMHMGLAGDNIYLDFFYSALVEFPAAFMIILTIDCIGRRYPWAASNMVAGAACLASVFIPGDLQWLKIIISCLGRMGITMAYEIVCLVNAELYPTFIRNLGVHICSSMCDIGGIITPFLVYRLTNIWLELPLMVFGVLGLVAGGLVLLLPETKGKALPETIEEAENMQRPRKNKEKMIYLQVQKLDIPLN	–	–	51 (6)^# µmol/l	0.001	–
